From patent publication US9409892B2, “4-hydroxy-isoquinoline compounds as HIF hydroxylase inhibitors” (FIBROGEN, INC., priority 2012, dated 2016)

What was measured:
PHD2 (EGLN1) = PHD2 (EGLN1) (Homo sapiens (Human), UniProt Q9GZT9); assay: HIF-PH assay (14CO2 capture), PHD2 enzyme inhibition; format: biochemical; conditions: Table 1; individual measurement; read-out: IC50 (μM) PHD2
PHD1 (EGLN2) = PHD1 (EGLN2) (Homo sapiens (Human), UniProt Q96KS0); assay: HIF-PH assay (14CO2 capture), PHD1 enzyme inhibition; format: biochemical; conditions: Table 1; for IC50: individual measurement, read-out: IC50 (μM) PHD1; for PHD2/PHD1: ratio of the IC50 of the compound for each enzyme
Chain of PHD1 (EGLN2) (Q96KS0 whole entry): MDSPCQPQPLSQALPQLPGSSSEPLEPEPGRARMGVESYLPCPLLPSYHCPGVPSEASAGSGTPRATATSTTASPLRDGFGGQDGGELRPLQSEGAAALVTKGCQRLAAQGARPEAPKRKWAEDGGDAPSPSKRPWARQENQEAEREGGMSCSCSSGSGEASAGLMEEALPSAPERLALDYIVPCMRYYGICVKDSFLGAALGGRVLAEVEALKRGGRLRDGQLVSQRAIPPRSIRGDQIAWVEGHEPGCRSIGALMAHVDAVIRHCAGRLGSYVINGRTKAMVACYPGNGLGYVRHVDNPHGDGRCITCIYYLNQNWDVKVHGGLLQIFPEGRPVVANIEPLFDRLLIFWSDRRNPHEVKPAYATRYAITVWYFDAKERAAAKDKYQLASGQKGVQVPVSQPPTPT

Chain of PHD2 (EGLN1) (Q9GZT9 whole entry): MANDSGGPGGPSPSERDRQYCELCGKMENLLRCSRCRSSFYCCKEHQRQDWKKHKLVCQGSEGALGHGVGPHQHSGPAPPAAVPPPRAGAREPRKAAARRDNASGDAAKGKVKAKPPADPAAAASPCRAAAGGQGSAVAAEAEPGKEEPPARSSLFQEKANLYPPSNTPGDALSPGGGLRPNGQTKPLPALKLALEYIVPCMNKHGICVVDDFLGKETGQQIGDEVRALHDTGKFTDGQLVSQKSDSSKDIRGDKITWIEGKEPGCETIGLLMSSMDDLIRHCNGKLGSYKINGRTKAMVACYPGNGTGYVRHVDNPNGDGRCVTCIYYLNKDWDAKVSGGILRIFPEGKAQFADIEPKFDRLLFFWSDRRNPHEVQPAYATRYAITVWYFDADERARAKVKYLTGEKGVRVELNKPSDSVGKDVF

| IC50 (PHD2 (EGLN1)) [µM] | IC50 (PHD1 (EGLN2)) [µM] | PHD2/PHD1 (PHD1 (EGLN2)) | SMILES |
| --- | --- | --- | --- |
| 37.8 | 3 | 13 | O=C(O)CCNC(=O)c1ncc2cc(NC(=O)Nc3ccc(F)cc3)ccc2c1O [Compound 141, 3-({7-[3-(4-Fluoro-phenyl)-ureido]-4-hydroxy-isoquinoline-3-carbonyl}-amino)-propionic acid] |
| 30.5 | 2.58 | 12 | CC(C)(CNC(=O)c1nc(C#N)c2cc(OCc3ccccc3)ccc2c1O)C(=O)O [Compound 153, 3-[(7-Benzyloxy-1-cyano-4-hydroxy-isoquinoline-3-carbonyl)-amino]-2,2-dimethyl-propionic acid] |
| 200 | 5.65 | 35 | CC(C)(CNC(=O)c1nc(C#N)c2cc(NC(=O)c3ccc(F)cc3)ccc2c1O)C(=O)O [Compound 139, 3-{[1-cyano-7-(4-Fluoro-benzoylamino)-4-hydroxy-isoquinoline-3-carbonyl]-amino}-2,2-dimethyl-propionic acid] |
| 21.3 | 3.63 | 6 | Cc1cccc(C)c1Oc1ccc2c(C#N)nc(C(=O)NCCCC(=O)O)c(O)c2c1 [Compound 110, 4-{[1-Cyano-6-(2,6-dimethyl-phenoxy)-4-hydroxy-isoquinoline-3-carbonyl]-amino}-butyric acid] |
| 10.5 | 0.75 | 14 | N#Cc1nc(C(=O)NCC(C(=O)O)C2CC2)c(O)c2ccc(Oc3ccccc3F)cc12 (stereo not drawn) [Compound 177, 3{-[1-Cyano-7-(2-fluoro-phenoxy)-4-hydroxy-isoquinoline-3-carbonyl]-amino}-2-cyclopropyl-propionic acid] |
| 27.6 | 2.83 | 10 | N#Cc1ccc([C@H](CC(=O)O)NC(=O)c2nc(C#N)c3cc(Oc4ccccc4)ccc3c2O)cc1 [Compound 172, 3-(S)-[(1-Cyano-4-hydroxy-7-phenoxy-isoquinoline-3-carbonyl)-amino]-3-(4-cyano-phenyl)-propionic acid] |
| 114 | 22.9 | 5 | CC(C)(CNC(=O)c1ncc2cc(-c3ccc(F)cc3)ccc2c1O)C(=O)O [Compound 150, 3-{[7-(4-Fluoro-phenyl)-4-hydroxy-isoquinoline-3-carbonyl]-amino}-2,2-dimethyl-propionic acid] |
| 42.1 | 5.25 | 8 | Cc1ccccc1Oc1ccc2c(C#N)nc(C(=O)NCC(C)(C)C(=O)O)c(O)c2c1 [Compound 155, 3-[(1-Cyano-4-hydroxy-6-o-tolyloxy-isoquinoline-3-carbonyl)-amino]-2,2-dimethyl-propionic acid] |
| 180 | 25.3 | 7 | CC(C)(CNC(=O)c1ncc2cc(-c3ccccc3)ccc2c1O)C(=O)O [Compound 129, 3-[(4-Hydroxy-7-phenyl-isoquinoline-3-carbonyl)-amino]-2,2-dimethyl-propionic acid] |
| 20.9 | 3.97 | 5 | N#Cc1nc(C(=O)NC(CC(=O)O)c2ccc(Cl)cc2)c(O)c2ccc(Oc3ccccc3)cc12 (stereo not drawn) [Compound 173, 3-(4-Chloro-phenyl)-3-[(1-cyano-4-hydroxy-7-phenoxy-isoquinoline-3-carbonyl)-amino]-propionic acid] |

The next lines start with the compound.

| SMILES | IC50 (PHD2 (EGLN1)) [µM] | IC50 (PHD1 (EGLN2)) [µM] | PHD2/PHD1 (PHD1 (EGLN2)) |
| --- | --- | --- | --- |
| N#Cc1nc(C(=O)NCC2(C(=O)O)CCOCC2)c(O)c2ccc(Oc3ccccc3)cc12 [Compound 16, 4-{[(1-Cyano-4-hydroxy-7-phenoxy-isoquinoline-3-carbonyl)-amino]-methyl}-tetrahydro-pyran-4-carboxylic acid] | 24.3 | 1.89 | 13 |
| N#Cc1nc(C(=O)N[C@@H](CO)CC(=O)O)c(O)c2ccc(Oc3ccccc3)cc12 [Compound 37, (R)-3-(1-Cyano-4-hydroxy-7-phenoxyisoquinoline-3-carboxamido)-4-hydroxybutanoic acid] | 159 | 6.67 | 24 |
| CCCC(CNC(=O)c1nc(C#N)c2cc(Oc3ccccc3)ccc2c1O)C(=O)O (stereo not drawn) [Compound 17, 2-{[(1-Cyano-4-hydroxy-7-phenoxy-isoquinoline-3-carbonyl)-amino]-methyl}-pentanoic acid] | 47.9 | 3.39 | 14 |
| CC(C)(CNC(=O)c1nc(C#N)c2cc(Oc3ccccc3Cl)ccc2c1O)C(=O)O [Compound 38, 3-(7-(2-Chlorophenoxy)-1-cyano-4-hydroxyisoquinoline-3-carboxamido)-2,2-dimethylpropanoic acid] | 4.79 | 0.24 | 20 |
| N#Cc1nc(C(=O)NC[C@H](Cc2ccccc2)C(=O)O)c(O)c2ccc(Oc3ccccc3)cc12 [Compound 49, (S)-2-Benzyl-3-[(1-cyano-4-hydroxy-7-phenoxy-isoquinoline-3-carbonyl)-amino]-propionic acid] | 23.9 | 1.66 | 14 |
| CC(C)(CNC(=O)c1nc(C#N)c2cc(Oc3ccc(Cl)cc3)ccc2c1O)C(=O)O [Compound 40, 3-{[7-(4-Chloro-phenoxy)-1-cyano-4-hydroxy-isoquinoline-3-carbonyl]-amino}-2,2-dimethyl-propionic acid] | 4.01 | 0.3 | 13 |
| N#Cc1nc(C(=O)NCC(F)(F)C(=O)O)c(O)c2ccc(Oc3ccccc3)cc12 [Compound 65, 3-[(1-Cyano-4-hydroxy-7-phenoxy-isoquinoline-3-carbonyl)-amino]-2,2-difluoro-propionic acid] | 5.99 | 0.73 | 8 |
| COC(=O)N[C@H](CCNC(=O)c1nc(C#N)c2cc(Oc3ccccc3)ccc2c1O)C(=O)O [Compound 53, (R)-4-(1-Cyano-4-hydroxy-7-phenoxyisoquinoline-3-carboxamido)-2-(methoxycarbonylamino)butanoic acid] | 1.4 | 0.24 | 5.8 |
| N#Cc1nc(C(=O)NC2(CC(=O)O)CCCCC2)c(O)c2ccc(Oc3ccccc3)cc12 [Compound 90, {1-[(1-Cyano-4-hydroxy-7-phenoxy-isoquinoline-3-carbonyl)-amino]-cyclohexyl}-acetic acid] | 56.3 | 7.32 | 8 |
| N#Cc1nc(C(=O)NCC2(C(=O)O)CCCC2)c(O)c2ccc(Oc3ccccc3)cc12 [Compound 19, 1-{[(1-Cyano-4-hydroxy-7-phenoxy-isoquinoline-3-carbonyl)-amino]-methyl}-cyclopentanecarboxylic acid] | 22.8 | 1.73 | 13 |
| C[C@H](CC(=O)O)NC(=O)c1nc(C#N)c2cc(Oc3ccccc3)ccc2c1O [Compound 64, 3-(R)-[(1-Cyano-4-hydroxy-7-phenoxy-isoquinoline-3-carbonyl)-amino]-butyric acid] | 12.6 | 0.93 | 14 |
| COc1ccc(Oc2ccc3c(O)c(C(=O)NC(C)(C)CC(=O)O)nc(C#N)c3c2)cc1 [Compound 21, 3{-[1-Cyano-4-hydroxy-7-(4-methoxy-phenoxy)-isoquinoline-3-carbonyl]-amino}-3-methyl-butyric acid] | 9.4 | 0.24 | 39 |
